# Measurements from US20230002393A1, “CDK KINASE INHIBITOR” (BEIJING BENICALL BIOTECH CO., LTD., priority 2019, published 2023).
# How the values were obtained:
# MCF-7 cells = experiment: Cell viability assay, MCF-7 cells (CellTiter-Glo, 168 h); assay type: cell-based; conditions: Homo sapiens, MCF7
# Method: An in vitro cell viability assay was conducted using some Example compounds following the steps below:
# 1. After recovery, MCF-7 cells (obtained from the Shanghai Cell Bank of the Chinese Academy of Sciences) were cultured at 37° C., 5% CO2, and 95% humidity.
# 2. 8 compound solutions at different concentrations were prepared for each Example compound. 50 μL of the compound solution at each concentration was added to a 96-well black plate.
# 3. The cell concentration was adjusted to about 30,000 cells/mL. 100 μL of the cell suspension was added to the 96-well plate, and mixed well to a final cell density of about 3,000 cells/well.
# 4. The 96-well plate was incubated at 37° C., 5% CO2, and 95% humidity for 168 h, i.e., 7 days.
# 5. The cell survival rate was measured by the method of CellTiter-Glo® Luminescent Cell Viability Assay (Promega, Cat #G7572). The fluorescence data were read on a microplate reader (EnVision™, a multi-function microplate detector, PerkinElmer).
# 6. The obtained fluorescence data were analyzed using the GraphPad Prism software. The cell survival rate was calculated for each Example compound at each concentration, and the IC50 interval of each Example compound was determined.
# CDK6/CyclinD1 = target: T1, CDK6/CyclinD1 (Homo sapiens, UniProt Q00534); experiment: In vitro cell-free CDK6/CyclinD1 kinase activity assay (TR-FRET); assay type: biochemical; conditions: ATP at Km
# T1 construct: purchased Carna 04-114
# Method: It should be noted that the assay can also be conducted by a similar method. The assay steps in this Test Example are as follows:
# The CDK6/CyclinD1 kinase activity was determined using a time-resolved fluorescence resonance energy transfer (TR-FRET) method. Measurements were performed in a reaction volume of 20 μL using 384-well assay plates. […] The reaction was stopped by adding a mixture of a peptide antibody (trade name: Cisbio, product No. 64CUSKAY) and Sa-XL665 (trade name: Cisbio, product No. 610SAXLB) diluted in HTRF KinEASE detection buffer (trade name: Cisbio, product No. 62SDBRDF, containing EDTA). After the mixture was incubated for 1 hour at room temperature, the plate was read. The TR-FRET signal was measured on a multimode plate reader (EnVision™, a multi-function microplate detector, PerkinElmer) at an excitation wavelength (λEx) of 330 nm and detection wavelengths (λEm) of 615 and 665 nm. The activity was determined by the ratio of fluorescence at 665 nm to that at 615 nm. For each compound, the enzyme activities of different concentrations of the compound were measured to determine IC50. The negative control contained no inhibitor. Two no-enzyme controls were used to determine baseline fluorescence levels. IC50 was obtained by fitting using the GraphPad 6.02 software.
# 8-10 concentrations were prepared for each compound, and formulated in DMSO. The stock concentration was 200× the working concentration. For example, if the working concentration was 100 nM, the corresponding concentration of the formulated stock solution was 20 μM.
# In the analysis of in vitro inhibitory activity on CDK kinase, the IC50 value of each of the Example compounds and Reference Example compounds was determined.
# T1 sequence (Q00534 whole entry): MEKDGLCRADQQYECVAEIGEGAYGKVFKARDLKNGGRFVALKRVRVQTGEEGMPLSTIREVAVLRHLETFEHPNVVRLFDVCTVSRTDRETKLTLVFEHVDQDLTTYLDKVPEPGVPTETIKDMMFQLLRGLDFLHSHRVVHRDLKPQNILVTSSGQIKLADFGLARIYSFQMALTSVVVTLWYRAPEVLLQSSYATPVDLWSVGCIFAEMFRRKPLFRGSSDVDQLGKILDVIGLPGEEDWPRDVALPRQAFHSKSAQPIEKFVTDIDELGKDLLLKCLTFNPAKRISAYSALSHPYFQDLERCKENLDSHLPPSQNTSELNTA
# T1 sequence (P24385 whole entry partner): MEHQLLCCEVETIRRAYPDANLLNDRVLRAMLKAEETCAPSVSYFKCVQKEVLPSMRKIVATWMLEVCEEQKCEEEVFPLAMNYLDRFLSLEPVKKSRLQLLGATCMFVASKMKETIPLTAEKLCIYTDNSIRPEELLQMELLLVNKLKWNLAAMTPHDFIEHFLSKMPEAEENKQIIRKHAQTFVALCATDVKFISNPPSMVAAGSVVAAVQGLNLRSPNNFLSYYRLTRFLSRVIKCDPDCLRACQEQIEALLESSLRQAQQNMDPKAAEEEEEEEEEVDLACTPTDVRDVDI
Structure (SMILES),IC50 (MCF-7 cells),IC50 (CDK6/CyclinD1)
COCCOc1ccc(-c2c(C(=O)N(C)C)cc3cnc(Nc4ccc(N5CC6(CCNC6)C5)cn4)nn23)cc1 [Example 49],500 to 2500 nM,< 100 nM
Cn1cc(-c2cc3cnc(Nc4ccc(N5CCC6(CCNCC6)CC5)cn4)nn3c2C2=CCCC2)cn1 [Example 93],< 500 nM,< 100 nM
Cc1cc(-c2cc3cnc(Nc4ccc(N5CCNCC5)cn4)nn3c2C2=CCCC2)ccn1 [Example 90],< 500 nM,< 100 nM
[2H]C([2H])([2H])N1CCN(c2ccc(Nc3ncc4cc(-c5cnn(C)c5)c(C5=CCCC5)n4n3)nc2)CC1 [Example 126],< 500 nM,< 100 nM
FC(F)n1cc(-c2cc3cnc(Nc4ccc(N5CCNCC5)cn4)nn3c2C2=CCCC2)cn1 [Example 72],500 to 2500 nM,100 to 1000 nM
CN(C)C(=O)c1cc2cnc(Nc3ccc(N4CCNCC4)cn3)nn2c1-c1ccc(Cl)cc1 [Example 34],< 500 nM,< 100 nM
[2H]C([2H])([2H])N1CCN(c2ccc(Nc3ncc4cc(C(=O)N(C([2H])([2H])[2H])C([2H])([2H])[2H])c(-c5ccc(Cl)cc5)n4n3)nc2)CC1 [Example 127],< 500 nM,< 100 nM
[2H]C([2H])([2H])N1CCN(c2ccc(Nc3ncc4cc(C(=O)N(C)C)c(-c5ccc(OC)cc5)n4n3)nc2)CC1 [Example 101],< 500 nM,< 100 nM
N#Cc1cc2cnc(Nc3ccc(N4CCNCC4)cc3)nn2c1N1CCC2(CCCCC2)C1 [Example 17],< 500 nM,< 100 nM
CN(C)C(=O)c1cc2cnc(Nc3ccc(N4CCNCC4)cn3)nn2c1-c1ccc(F)cc1 [Example 32],< 500 nM,< 100 nM
CCN1CCN(c2ccc(Nc3ncc4cc(C(=O)N(C)C)c(C5=CCCC5)n4n3)nc2)CC1 [Example 103],< 500 nM,< 100 nM
N#Cc1cc2cnc(Nc3ccc(N4CCNCC4)cc3)nn2c1-c1ccc(Cl)cc1 [Example 7],< 500 nM,< 100 nM
N#Cc1cc2cnc(Nc3ccc(N4CCNCC4)cc3)nn2c1-c1cccc2cccnc12 [Example 15],< 500 nM,100 to 1000 nM
N#Cc1cc2cnc(Nc3ccc(N4CCNCC4)cc3)nn2c1Br [Example 1],< 500 nM,< 100 nM
N#Cc1cc2cnc(Nc3ccc(N4CCNCC4)cc3)nn2c1N1CCCC1 [Example 6],< 500 nM,< 100 nM
[2H]C([2H])([2H])N(C(=O)c1cc2cnc(Nc3ccc(N4CCN(C)CC4)cn3)nn2c1-c1ccc(OC)cc1)C([2H])([2H])[2H] [Example 121],< 500 nM,< 100 nM
[2H]C([2H])([2H])N1CCN(c2ccc(Nc3ncc4cc(C(=O)N(C([2H])([2H])[2H])C([2H])([2H])[2H])c(-c5ccccc5)n4n3)nc2)CC1 [Example 123],< 500 nM,< 100 nM
COc1ccc(-c2c(C(=O)N(C)C)cc3cnc(Nc4ccc(N5CCNCC5)cn4)nn23)cc1 [Example 42],< 500 nM,< 100 nM
Cc1cc(-c2cc3cnc(Nc4ccc(N5CCN(C)CC5)cn4)nn3c2C2=CCCC2)ccn1 [Example 110],< 500 nM,< 100 nM
[2H]C([2H])([2H])N(C(=O)c1cc2cnc(Nc3ccc(N4CCN(C([2H])([2H])C([2H])([2H])[2H])CC4)cn3)nn2c1C1=CCCC1)C([2H])([2H])[2H] [Example 115],< 500 nM,< 100 nM
CN(C)C(=O)c1cc2cnc(Nc3ccc(N4CCNCC4)cn3)nn2c1-c1ccc(O)cc1 [Example 60],2500 to 10000 nM,< 100 nM
COc1cc(F)ccc1-c1c(C(=O)N(C)C)cc2cnc(Nc3ccc(N4CCNCC4)cn3)nn12 [Example 59],500 to 2500 nM,< 100 nM
Cn1cc(-c2cc3cnc(Nc4ccc(N5CCNCC5)cn4)nn3c2N2CCCC2)cn1 [Example 55],< 500 nM,< 100 nM
CN(C)C(=O)c1cc2cnc(Nc3ccc(N4CCNCC4)cn3)nn2c1C1=CCCC1 [Example 28],< 500 nM,< 100 nM
